Measurements from the supplement of paper PMC10307832.

Tests used:
Test in all cases: relative viability (nuclei count vs DMSO), 5 days (fraction); higher = more cells survive
[1] = system: A-427
Outline: (§1)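 Relative viability equals treated-well nuclei counts divided by vehicle-well nuclei counts. Counts came from 4× images of lung cancer cell lines grown in 1536-well plates for 5 days after pin-tool dosing on the day after seeding. Dosing used one drug alone or a fixed anchor-drug dose plus five library-drug doses (not always all listed) in √10 steps, and values are medians of duplicate plates.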

[2] = system: CAL-12T
Outline: as §1

[3] = system: COR-L 105
Outline: as §1

[4] = system: COR-L23
Outline: as §1

[5] = system: HOP-62
Outline: as §1

[6] = system: LCLC-103H
Outline: as §1

[7] = system: LXF-289
Outline: as §1

[8] = system: NCI-H1395
Outline: as §1

[9] = system: NCI-H1651
Outline: as §1

[10] = system: NCI-H1975
Outline: as §1

[11] = system: NCI-H2023
Outline: as §1

[12] = system: NCI-H2085
Outline: as §1

[13] = system: NCI-H2087
Outline: as §1

[14] = system: NCI-H2170
Outline: as §1

[15] = system: NCI-H2342
Outline: as §1

[16] = system: NCI-H3122
Outline: as §1

[17] = system: NCI-H647
Outline: as §1

[18] = system: NCI-H650
Outline: as §1

[19] = system: RERF-LC-KJ
Outline: as §1

[20] = system: SK-MES-1
Outline: as §1

Which results are given for `COCC1(CO)C(=O)C2CCN1CC2` (configuration not stated) [PRIMA-1MET] + CC(=O)c1c(C)c2cnc(Nc3ccc(N4CCNCC4)cn3)nc2n(C2CCCC2)c1=O [Palbociclib] (partner 0.5 µM)?
relative viability ([1]; first compound 0.2 µM): 0.574; relative viability ([1]; first compound 0.6325 µM): 0.523; relative viability ([1]; first compound 2 µM): 0.576; relative viability ([1]; first compound 6.325 µM): 0.49; relative viability ([1]; first compound 20 µM): 0.525; relative viability ([2]; first compound 0.2 µM): 0.339; relative viability ([2]; first compound 0.6325 µM): 0.373; relative viability ([2]; first compound 2 µM): 0.446; relative viability ([2]; first compound 6.325 µM): 0.439; relative viability ([2]; first compound 20 µM): 0.0494; relative viability ([3]; first compound 0.2 µM): 0.41; relative viability ([3]; first compound 0.6325 µM): 0.363; relative viability ([3]; first compound 2 µM): 0.385; relative viability ([3]; first compound 6.325 µM): 0.41; relative viability ([3]; first compound 20 µM): 0.16; relative viability ([4]; first compound 0.2 µM): 0.291; relative viability ([4]; first compound 0.6325 µM): 0.191; relative viability ([4]; first compound 2 µM): 0.251; relative viability ([4]; first compound 6.325 µM): 0.353; relative viability ([4]; first compound 20 µM): 0.0222; relative viability ([5]; first compound 0.2 µM): 0.549; relative viability ([5]; first compound 0.6325 µM): 0.385; relative viability ([5]; first compound 2 µM): 0.469; relative viability ([5]; first compound 6.325 µM): 0.475; relative viability ([5]; first compound 20 µM): 0.317; relative viability ([6]; first compound 0.2 µM): 0.488; relative viability ([6]; first compound 0.6325 µM): 0.376; relative viability ([6]; first compound 2 µM): 0.466; relative viability ([6]; first compound 6.325 µM): 0.484; relative viability ([6]; first compound 20 µM): 0.425; relative viability ([7]; first compound 0.2 µM): 0.642; relative viability ([7]; first compound 0.6325 µM): 0.662; relative viability ([7]; first compound 2 µM): 0.734; relative viability ([7]; first compound 6.325 µM): 0.594; relative viability ([7]; first compound 20 µM): 0.602; relative viability ([8]; first compound 0.2 µM): 0.665; relative viability ([8]; first compound 2 µM): 0.641; relative viability ([8]; first compound 6.325 µM): 0.656; relative viability ([8]; first compound 20 µM): 0.578; relative viability ([9]; first compound 0.2 µM): 0.602; relative viability ([9]; first compound 0.6325 µM): 0.389; relative viability ([9]; first compound 2 µM): 0.473; relative viability ([9]; first compound 6.325 µM): 0.569; relative viability ([9]; first compound 20 µM): 0.526; relative viability ([10]; first compound 0.2 µM): 0.513; relative viability ([10]; first compound 0.6325 µM): 0.483; relative viability ([10]; first compound 2 µM): 0.409; relative viability ([10]; first compound 6.325 µM): 0.693; relative viability ([10]; first compound 20 µM): 0.582; relative viability ([11]; first compound 0.2 µM): 0.352; relative viability ([11]; first compound 0.6325 µM): 0.379; relative viability ([11]; first compound 2 µM): 0.422; relative viability ([11]; first compound 6.325 µM): 0.365; relative viability ([11]; first compound 20 µM): 0.295; relative viability ([12]; first compound 0.2 µM): 0.526; relative viability ([12]; first compound 0.6325 µM): 0.515; relative viability ([12]; first compound 2 µM): 0.475; relative viability ([12]; first compound 6.325 µM): 0.472; relative viability ([12]; first compound 20 µM): 0.166; relative viability ([13]; first compound 0.6325 µM): 0.183; relative viability ([13]; first compound 2 µM): 0.22; relative viability ([13]; first compound 6.325 µM): 0.203; relative viability ([13]; first compound 20 µM): 0.13; relative viability ([14]; first compound 0.2 µM): 0.422; relative viability ([14]; first compound 0.6325 µM): 0.36; relative viability ([14]; first compound 2 µM): 0.391; relative viability ([14]; first compound 6.325 µM): 0.449; relative viability ([14]; first compound 20 µM): 0.379; relative viability ([15]; first compound 0.2 µM): 0.602; relative viability ([15]; first compound 0.6325 µM): 0.452; relative viability ([15]; first compound 6.325 µM): 0.535; relative viability ([15]; first compound 20 µM): 0.463; relative viability ([16]; first compound 0.2 µM): 0.21; relative viability ([16]; first compound 0.6325 µM): 0.167; relative viability ([16]; first compound 2 µM): 0.184; relative viability ([16]; first compound 6.325 µM): 0.2; relative viability ([16]; first compound 20 µM): 0.201; relative viability ([17]; first compound 0.2 µM): 0.449; relative viability ([17]; first compound 0.6325 µM): 0.387; relative viability ([17]; first compound 2 µM): 0.276; relative viability ([17]; first compound 6.325 µM): 0.481; relative viability ([17]; first compound 20 µM): 0.42; relative viability ([18]; first compound 0.2 µM): 0.317; relative viability ([18]; first compound 0.6325 µM): 0.289; relative viability ([18]; first compound 2 µM): 0.367; relative viability ([18]; first compound 6.325 µM): 0.338; relative viability ([18]; first compound 20 µM): 0.0905; relative viability ([19]; first compound 0.2 µM): 1.13; relative viability ([19]; first compound 0.6325 µM): 1.13; relative viability ([19]; first compound 2 µM): 0.978; relative viability ([19]; first compound 6.325 µM): 1.08; relative viability ([19]; first compound 20 µM): 1.04; relative viability ([20]; first compound 0.2 µM): 0.323; relative viability ([20]; first compound 0.6325 µM): 0.371; relative viability ([20]; first compound 2 µM): 0.326; relative viability ([20]; first compound 6.325 µM): 0.291; relative viability ([20]; first compound 20 µM): 0.295
